Results: ChEMBL document CHEMBL4732047, “New imidazopyridines with phosphodiesterase 4 and 7 inhibitory activity and their efficacy in animal models of inflammatory and autoimmune diseases” (Eur J Med Chem, 2021)
Activity calls are given as the source filed them. The calls are words filed in the database; no cut-off is given here.

Assays:
[1] = target: Dual specificity calcium/calmodulin-dependent 3',5'-cyclic nucleotide phosphodiesterase 1B (Homo sapiens, UniProt Q01064); assay: Inhibition of human recombinant PDE1B using cAMP as substrate incubated for 20 mins measured by Kinase Glo reagent based microplate reader assay
Sequence of Dual specificity calcium/calmodulin-dependent 3',5'-cyclic nucleotide phosphodiesterase 1B (Q01064 whole entry): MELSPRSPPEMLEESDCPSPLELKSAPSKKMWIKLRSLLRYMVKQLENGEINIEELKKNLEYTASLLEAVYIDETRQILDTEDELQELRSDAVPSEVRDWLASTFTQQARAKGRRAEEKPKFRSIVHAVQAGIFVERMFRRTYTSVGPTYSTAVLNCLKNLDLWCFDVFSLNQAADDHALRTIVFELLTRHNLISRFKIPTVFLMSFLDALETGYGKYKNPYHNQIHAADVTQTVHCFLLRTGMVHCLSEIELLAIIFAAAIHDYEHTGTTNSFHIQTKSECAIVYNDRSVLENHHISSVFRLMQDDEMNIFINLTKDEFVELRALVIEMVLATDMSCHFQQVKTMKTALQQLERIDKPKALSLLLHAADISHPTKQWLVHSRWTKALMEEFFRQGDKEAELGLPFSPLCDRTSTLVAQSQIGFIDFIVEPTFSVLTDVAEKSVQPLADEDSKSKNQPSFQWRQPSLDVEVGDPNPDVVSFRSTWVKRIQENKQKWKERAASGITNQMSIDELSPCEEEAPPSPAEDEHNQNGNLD

[2] = target: cGMP-inhibited 3',5'-cyclic phosphodiesterase 3A (Homo sapiens, UniProt Q14432); assay: Inhibition of human recombinant PDE3A using cAMP as substrate incubated for 20 mins measured by Kinase Glo reagent based microplate reader assay
[3] = target: cGMP-dependent 3',5'-cyclic phosphodiesterase (Homo sapiens, UniProt O00408); assay: Inhibition of human recombinant PDE2A using cGMP as substrate incubated for 20 mins measured by Kinase Glo reagent based microplate reader assay
Sequence of cGMP-dependent 3',5'-cyclic phosphodiesterase (O00408 whole entry): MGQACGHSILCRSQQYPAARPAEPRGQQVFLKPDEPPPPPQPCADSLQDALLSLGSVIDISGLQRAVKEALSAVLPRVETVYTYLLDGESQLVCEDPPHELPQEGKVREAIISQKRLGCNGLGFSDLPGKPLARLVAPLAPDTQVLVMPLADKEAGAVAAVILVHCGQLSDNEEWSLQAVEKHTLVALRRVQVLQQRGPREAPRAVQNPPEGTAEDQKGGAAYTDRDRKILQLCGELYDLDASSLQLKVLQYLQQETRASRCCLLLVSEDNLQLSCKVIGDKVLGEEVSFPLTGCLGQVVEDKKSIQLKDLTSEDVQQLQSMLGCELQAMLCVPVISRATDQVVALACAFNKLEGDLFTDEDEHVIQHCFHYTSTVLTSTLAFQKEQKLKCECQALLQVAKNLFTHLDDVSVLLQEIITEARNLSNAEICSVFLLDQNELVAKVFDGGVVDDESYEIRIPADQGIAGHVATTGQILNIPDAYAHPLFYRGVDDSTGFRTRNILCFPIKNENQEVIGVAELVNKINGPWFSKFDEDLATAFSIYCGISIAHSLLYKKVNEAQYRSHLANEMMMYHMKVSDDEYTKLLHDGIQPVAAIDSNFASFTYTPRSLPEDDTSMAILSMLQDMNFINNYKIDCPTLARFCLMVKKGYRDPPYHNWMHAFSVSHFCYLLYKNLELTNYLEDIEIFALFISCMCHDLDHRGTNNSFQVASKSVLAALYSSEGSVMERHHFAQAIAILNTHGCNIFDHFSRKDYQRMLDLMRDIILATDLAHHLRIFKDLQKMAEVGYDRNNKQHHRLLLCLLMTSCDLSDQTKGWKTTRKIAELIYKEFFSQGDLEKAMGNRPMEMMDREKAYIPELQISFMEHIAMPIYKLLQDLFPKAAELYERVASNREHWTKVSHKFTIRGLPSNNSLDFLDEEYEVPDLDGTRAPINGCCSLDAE

[4] = target: 3',5'-cyclic-AMP phosphodiesterase 4B (Homo sapiens, UniProt Q07343); assay: Inhibition of human recombinant PDE4B using cAMP as substrate incubated for 20 mins measured by Kinase Glo reagent based microplate reader assay
Sequence of 3',5'-cyclic-AMP phosphodiesterase 4B (Q07343 whole entry): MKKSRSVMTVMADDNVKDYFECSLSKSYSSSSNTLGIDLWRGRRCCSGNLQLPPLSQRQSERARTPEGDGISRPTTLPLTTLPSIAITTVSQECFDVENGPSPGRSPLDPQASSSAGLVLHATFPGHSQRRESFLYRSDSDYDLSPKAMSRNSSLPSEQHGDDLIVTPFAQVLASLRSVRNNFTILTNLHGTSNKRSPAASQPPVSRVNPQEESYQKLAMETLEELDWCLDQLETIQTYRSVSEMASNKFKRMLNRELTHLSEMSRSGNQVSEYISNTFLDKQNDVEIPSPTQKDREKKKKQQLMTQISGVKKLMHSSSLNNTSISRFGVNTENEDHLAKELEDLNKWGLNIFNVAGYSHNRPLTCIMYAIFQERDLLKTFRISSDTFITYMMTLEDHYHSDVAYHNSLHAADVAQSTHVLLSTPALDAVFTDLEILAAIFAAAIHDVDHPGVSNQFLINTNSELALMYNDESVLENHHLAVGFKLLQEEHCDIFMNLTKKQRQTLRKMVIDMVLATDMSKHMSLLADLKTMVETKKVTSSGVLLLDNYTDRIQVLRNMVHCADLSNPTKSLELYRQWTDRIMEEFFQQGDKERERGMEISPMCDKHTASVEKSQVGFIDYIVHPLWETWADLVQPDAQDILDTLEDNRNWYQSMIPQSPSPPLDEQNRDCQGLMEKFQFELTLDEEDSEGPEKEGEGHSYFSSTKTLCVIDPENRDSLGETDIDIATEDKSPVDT

[5] = target: cAMP and cAMP-inhibited cGMP 3',5'-cyclic phosphodiesterase 10A (Homo sapiens, UniProt Q9Y233); assay: Inhibition of human recombinant PDE10A using cAMP as substrate incubated for 20 mins measured by Kinase Glo reagent based microplate reader assay
Sequence of cAMP and cAMP-inhibited cGMP 3',5'-cyclic phosphodiesterase 10A (Q9Y233 whole entry): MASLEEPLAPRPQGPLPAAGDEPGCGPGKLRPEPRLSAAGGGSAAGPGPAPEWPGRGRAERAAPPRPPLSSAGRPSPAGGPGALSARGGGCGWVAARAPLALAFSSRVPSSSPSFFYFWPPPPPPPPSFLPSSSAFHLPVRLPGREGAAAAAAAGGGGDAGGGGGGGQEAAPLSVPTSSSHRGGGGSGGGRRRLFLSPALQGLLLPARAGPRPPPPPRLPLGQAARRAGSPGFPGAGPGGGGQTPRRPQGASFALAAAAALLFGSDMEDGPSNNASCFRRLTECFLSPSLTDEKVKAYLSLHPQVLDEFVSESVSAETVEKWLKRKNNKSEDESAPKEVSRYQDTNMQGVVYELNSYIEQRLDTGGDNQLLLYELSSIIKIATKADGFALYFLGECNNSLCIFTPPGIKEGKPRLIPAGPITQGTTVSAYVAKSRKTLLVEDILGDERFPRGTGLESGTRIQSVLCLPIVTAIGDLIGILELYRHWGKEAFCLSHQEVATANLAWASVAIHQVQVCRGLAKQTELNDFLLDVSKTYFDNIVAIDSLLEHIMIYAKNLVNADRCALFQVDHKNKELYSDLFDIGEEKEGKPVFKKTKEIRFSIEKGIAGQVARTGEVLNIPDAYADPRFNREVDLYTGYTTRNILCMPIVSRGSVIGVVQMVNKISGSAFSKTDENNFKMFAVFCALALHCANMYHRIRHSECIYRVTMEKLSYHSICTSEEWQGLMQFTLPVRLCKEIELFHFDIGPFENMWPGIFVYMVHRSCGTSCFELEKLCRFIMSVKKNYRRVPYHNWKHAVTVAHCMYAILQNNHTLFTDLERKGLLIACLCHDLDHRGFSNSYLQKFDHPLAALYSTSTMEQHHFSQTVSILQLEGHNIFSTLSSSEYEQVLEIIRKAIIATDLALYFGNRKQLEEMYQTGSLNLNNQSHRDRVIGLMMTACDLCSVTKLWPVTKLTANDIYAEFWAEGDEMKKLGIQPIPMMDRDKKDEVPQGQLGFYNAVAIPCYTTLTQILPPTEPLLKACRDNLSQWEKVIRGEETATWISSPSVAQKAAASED

[6] = target: 3',5'-cyclic-AMP phosphodiesterase 4D (Homo sapiens, UniProt Q08499); assay: Inhibition of human recombinant PDE4D using cAMP as substrate incubated for 20 mins measured by Kinase Glo reagent based microplate reader assay
Sequence of 3',5'-cyclic-AMP phosphodiesterase 4D (Q08499 whole entry): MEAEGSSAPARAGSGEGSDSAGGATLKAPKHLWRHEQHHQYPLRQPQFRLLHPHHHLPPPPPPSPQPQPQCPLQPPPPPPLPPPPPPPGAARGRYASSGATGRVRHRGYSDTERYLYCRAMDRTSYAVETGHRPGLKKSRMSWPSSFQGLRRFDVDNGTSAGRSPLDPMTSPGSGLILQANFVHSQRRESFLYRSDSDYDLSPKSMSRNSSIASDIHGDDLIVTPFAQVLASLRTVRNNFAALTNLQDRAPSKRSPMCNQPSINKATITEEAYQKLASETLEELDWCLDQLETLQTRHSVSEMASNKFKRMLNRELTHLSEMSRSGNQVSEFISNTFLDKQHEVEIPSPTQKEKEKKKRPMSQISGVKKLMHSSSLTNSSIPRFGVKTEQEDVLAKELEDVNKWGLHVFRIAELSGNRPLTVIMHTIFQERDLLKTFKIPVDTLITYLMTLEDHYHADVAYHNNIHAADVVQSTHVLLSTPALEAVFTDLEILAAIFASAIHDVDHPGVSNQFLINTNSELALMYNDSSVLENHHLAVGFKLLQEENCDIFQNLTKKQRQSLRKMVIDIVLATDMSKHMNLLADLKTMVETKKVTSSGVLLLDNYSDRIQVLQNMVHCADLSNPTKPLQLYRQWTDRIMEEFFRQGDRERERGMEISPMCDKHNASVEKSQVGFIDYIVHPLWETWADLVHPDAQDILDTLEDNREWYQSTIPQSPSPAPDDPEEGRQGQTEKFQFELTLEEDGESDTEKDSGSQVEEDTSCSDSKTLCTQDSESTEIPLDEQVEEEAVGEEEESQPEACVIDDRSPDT

[7] = target: cGMP-specific 3',5'-cyclic phosphodiesterase (Homo sapiens, UniProt O76074); assay: Inhibition of human recombinant PDE5A using cGMP as substrate incubated for 20 mins measured by Kinase Glo reagent based microplate reader assay
[8] = target: High affinity 3',5'-cyclic-AMP phosphodiesterase 7A (Homo sapiens, UniProt Q13946); assay: Inhibition of human recombinant PDE7A using cAMP as substrate incubated for 20 mins measured by Kinase Glo reagent based microplate reader assay
Sequence of High affinity 3',5'-cyclic-AMP phosphodiesterase 7A (Q13946 whole entry): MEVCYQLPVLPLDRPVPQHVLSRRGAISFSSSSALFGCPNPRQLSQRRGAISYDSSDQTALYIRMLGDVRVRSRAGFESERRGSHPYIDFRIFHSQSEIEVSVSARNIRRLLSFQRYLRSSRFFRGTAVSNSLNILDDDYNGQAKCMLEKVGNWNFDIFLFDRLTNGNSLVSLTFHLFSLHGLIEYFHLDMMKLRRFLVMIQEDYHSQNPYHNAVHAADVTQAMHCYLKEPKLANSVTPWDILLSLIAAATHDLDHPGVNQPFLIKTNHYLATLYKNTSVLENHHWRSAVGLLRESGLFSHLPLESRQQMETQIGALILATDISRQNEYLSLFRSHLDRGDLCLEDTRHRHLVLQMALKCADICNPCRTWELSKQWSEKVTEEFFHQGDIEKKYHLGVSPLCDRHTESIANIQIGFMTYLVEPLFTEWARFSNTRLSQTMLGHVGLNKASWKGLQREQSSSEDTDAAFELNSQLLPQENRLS

Mus musculus = assay: Hepatoprotective activity in ConA-induced BALB/c hepatitis mouse model assessed as decrease in serum IL-6 level at 50 mg/kg, ip administration and measured after 8 hrs relative to control; type: functional, organism-based

| Structure (SMILES) | IC50 [4] [µM] | IC50 [8] [µM] | other results |
| --- | --- | --- | --- |
| CCCCCn1c(-c2ccco2)nc2c(N(C)CCCO)nccc21 | 3.48 | 7.24 | IC50 [1]: 2.3 µM; IC50 [2]: 9.92 µM; IC50 [3]: 21.8 µM; IC50 [5]: 2.95 µM; IC50 [6]: 25.8 µM; IC50 [7]: 2.91 µM; Activity (Mus musculus): inactive |
| OCCCNc1nccc2c1nc(-c1ccco1)n2C1CCCC1 | 19 | > 200 |  |
| CCCCCn1c(-c2ccco2)nc2c(NCc3ccccc3)ccnc21 | 8.66 | > 200 |  |
| COCCNc1nccc2c1nc(-c1ccco1)n2C1CCCC1 | 18.1 | 192 |  |
| CCCCCn1c(-c2ccccc2)nc2c(NCCc3cccs3)nccc21 | 15.6 | > 200 |  |
| COCCCNc1nccc2c1nc(-c1ccco1)n2C1CCCC1 | 19.9 | 142 |  |
| Cc1ccc([N+](=O)[O-])cc1S(=O)(=O)N(C)C |  | 2.32 |  |
| CCCCCn1c(-c2ccco2)nc2c(NCCCO)ccnc21 | 49.7 | 63.6 |  |
| Nc1ccnc2c1nc(-c1ccccc1)n2CCCO | 100 | > 200 |  |
| Nc1ccnc2c1nc(-c1ccccc1)n2CCN1CCCCC1 | 103 | > 200 |  |
| c1coc(-c2nc3c(NCCc4cccs4)ccnc3n2C2CCCC2)c1 | 3.25 | > 200 |  |
| CCCCCn1c(-c2ccc([N+](=O)[O-])cc2)nc2c(N)ccnc21 | > 200 | > 200 |  |
| CCCCCn1c(-c2ccco2)nc2c(NCc3ccccc3)nccc21 | 8.34 | > 200 |  |
| CCCCCC[C@H]([C@H](C)O)n1cnc2c(N)ncnc21 [(+)-EHNA] |  |  | IC50 [3]: 2.62 µM |
| CCCCCn1c(-c2ccco2)nc2c(NCCOC)ccnc21 | 9.77 | > 200 |  |
| CCCCCn1c(-c2ccc(OC)cc2)nc2c(N)ccnc21 | 41.5 | > 200 |  |
| CCCCCn1c(-c2ccco2)nc2c(N)ccnc21 | 39.9 | > 200 |  |
